Legend:
Test in all cases: General post-emergent herbicidal activity, foliar application
Type in all cases: in vivo
[1] = tested on: Viola tricolor L. (pansy); details: for pest or weed control at 140 g/ha: 140 g ai/ha; for pest or weed control at 280 g/ha: 280 g ai/ha; for pest or weed control at 70 g/ha: 70 g ai/ha; for GR80 Value VIOTR: calculated by probit analysis, dose for 80% visual injury, may be extrapolated
Summary of the method: (§1)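 Visual injury ratings on a scale of 0 (none) to 100% (complete kill), taken 14 days after foliar post-emergence treatment of greenhouse plants and compared with untreated plants, were fitted by probit analysis to give GR20, GR50 and GR80 doses; some GR80 values are extrapolated from the slope. Sprays contained crop oil concentrate and surfactant, with rates from the highest down to 1/16×.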

[2] = tested on: Chenopodium album L. (lambsquarters, common); details: for pest or weed control at 140 g/ha: 140 g ai/ha; for pest or weed control at 280 g/ha: 280 g ai/ha; for pest or weed control at 70 g/ha: 70 g ai/ha; for GR80 Value CHEAL: calculated by probit analysis, dose for 80% visual injury, may be extrapolated
Summary of the method: as §1

[3] = tested on: Euphorbia heterophylla L. (poinsettia, wild); details: for pest or weed control at 140 g/ha: 140 g ai/ha; for pest or weed control at 280 g/ha: 280 g ai/ha; for pest or weed control at 70 g/ha: 70 g ai/ha; for GR80 Value EPHHL: calculated by probit analysis, dose for 80% visual injury, may be extrapolated
Summary of the method: as §1

[4] = tested on: Helianthus annuus L. (sunflower, common); details: for pest or weed control at 140 g/ha: 140 g ai/ha; for pest or weed control at 280 g/ha: 280 g ai/ha; for pest or weed control at 70 g/ha: 70 g ai/ha; for GR80 Value HELAN: calculated by probit analysis, dose for 80% visual injury, may be extrapolated
Summary of the method: as §1

[5] = tested on: Amaranthus retroflexus L. (pigweed, redroot); details: for pest or weed control at 140 g/ha: 140 g ai/ha; for pest or weed control at 280 g/ha: 280 g ai/ha; for pest or weed control at 70 g/ha: 70 g ai/ha; for GR80 Value AMARE: calculated by probit analysis, dose for 80% visual injury, may be extrapolated
Summary of the method: as §1

[6] = tested on: Echinochloa crus-galli (L.) Beauv. (barnyardgrass); details: for pest or weed control at 140 g/ha: 140 g ai/ha; for pest or weed control at 280 g/ha: 280 g ai/ha; for pest or weed control at 70 g/ha: 70 g ai/ha; for GR80 Value ECHCG: calculated by probit analysis, dose for 80% visual injury, may be extrapolated
Summary of the method: as §1

[7] = tested on: Zea mays L. (corn); details: 336 h, scored after 14 days, read-out: % Visual Growth Reduction ZEAMX; for plant injury at 140 g/ha: 140 g ai/ha; for plant injury at 280 g/ha: 280 g ai/ha; for plant injury at 70 g/ha: 70 g ai/ha
Summary of the method: (§2)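 Injury rated visually 14 days after treatment on a 0 (none) to 100% (complete kill) scale against untreated plants; greenhouse-grown, sub-irrigated to avoid wash-off. Foliar spray in aqueous acetone/DMSO with isopropanol, crop oil concentrate and Triton X-155, at a highest rate and 2-fold serial dilutions down to 1/16×.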

[8] = tested on: Oryza sativa L. (rice); details: Oryza sativa, 336 h, scored after 14 days, read-out: % Visual Growth Reduction ORYSA; for plant injury at 140 g/ha: 140 g ai/ha; for plant injury at 280 g/ha: 280 g ai/ha; for plant injury at 70 g/ha: 70 g ai/ha
Summary of the method: as §2

[9] = Viola tricolor, 336 h, foliar post-emergent, scored after 14 days, read-out: % Visual Growth Reduction VIOTR
[10] = Chenopodium album, 336 h, foliar post-emergent, scored after 14 days, read-out: % Visual Growth Reduction CHEAL
[11] = Euphorbia heterophylla, 336 h, foliar post-emergent, scored after 14 days, read-out: % Visual Growth Reduction EPHHL
[12] = Helianthus annuus, 336 h, foliar post-emergent, scored after 14 days, read-out: % Visual Growth Reduction HELAN
[13] = Amaranthus retroflexus, 336 h, foliar post-emergent, scored after 14 days, read-out: % Visual Growth Reduction AMARE
[14] = Echinochloa crus-galli, 336 h, foliar post-emergent, scored after 14 days, read-out: % Visual Growth Reduction ECHCG

COC(=O)c1nc(C(C)CF)cc(N)c1Cl (stereo not drawn) [Compound F20, methyl 4-amino-3-chloro-6-(1-fluoropropan-2-yl)picolinate]
pest or weed control at 140 g/ha [1, 9]: 30%
pest or weed control at 140 g/ha [2, 10]: 80%
pest or weed control at 140 g/ha [3, 11]: 95%
pest or weed control at 140 g/ha [4, 12]: 50%
pest or weed control at 140 g/ha [5, 13]: 95%
pest or weed control at 140 g/ha [6, 14]: 0%
plant injury at 140 g/ha [7]: 0%
plant injury at 140 g/ha [8]: 0%

COC(=O)c1nc(CCl)c(F)c(N)c1Cl [Compound F21, Methyl 4-amino-3-chloro-6-(chloromethyl)-5-fluoropicolinate]
pest or weed control at 280 g/ha [1, 9]: 0%
pest or weed control at 280 g/ha [2, 10]: 0%
pest or weed control at 280 g/ha [3, 11]: 0%
pest or weed control at 280 g/ha [4, 12]: 0%
pest or weed control at 280 g/ha [5, 13]: 0%
pest or weed control at 280 g/ha [6, 14]: 0%
plant injury at 280 g/ha [7]: 0%
plant injury at 280 g/ha [8]: 0%

COC(=O)c1nc(C(C)CF)c(F)c(N)c1Cl (stereo not drawn) [Compound F37, methyl 4-amino-3-chloro-5-fluoro-6-(1-fluoropropan-2-yl)picolinate]
pest or weed control at 132 g/ha ([1]; Viola tricolor, 336 h, 132 g ai/ha, foliar post-emergent, scored after 14 days, read-out: % Visual Growth Reduction VIOTR): 0%
pest or weed control at 132 g/ha ([2]; Chenopodium album, 336 h, 132 g ai/ha, foliar post-emergent, scored after 14 days, read-out: % Visual Growth Reduction CHEAL): 0%
pest or weed control at 132 g/ha ([3]; Euphorbia heterophylla, 336 h, 132 g ai/ha, foliar post-emergent, scored after 14 days, read-out: % Visual Growth Reduction EPHHL): 100%
pest or weed control at 132 g/ha ([4]; Helianthus annuus, 336 h, 132 g ai/ha, foliar post-emergent, scored after 14 days, read-out: % Visual Growth Reduction HELAN): 80%
pest or weed control at 132 g/ha ([5]; Amaranthus retroflexus, 336 h, 132 g ai/ha, foliar post-emergent, scored after 14 days, read-out: % Visual Growth Reduction AMARE): 50%
pest or weed control at 132 g/ha ([6]; Echinochloa crus-galli, 336 h, 132 g ai/ha, foliar post-emergent, scored after 14 days, read-out: % Visual Growth Reduction ECHCG): 0%
plant injury at 132 g/ha ([7]; 132 g ai/ha): 0%
plant injury at 132 g/ha ([8]; 132 g ai/ha): 0%

COC(=O)c1nc(C(F)F)cc(N)c1Cl [Compound F12, methyl 4-amino-3-chloro-6-(difluoromethyl)picolinate]
pest or weed control at 35 g/ha ([1]; Viola tricolor, 336 h, 35 g ai/ha, foliar post-emergent, scored after 14 days, read-out: % Visual Growth Reduction VIOTR): 90%
pest or weed control at 70 g/ha [1, 9]: 100%
pest or weed control at 140 g/ha [1, 9]: 100%
pest or weed control at 280 g/ha [1, 9]: 100%
GR80 Value VIOTR [1]: 29.2 g ai/ha
pest or weed control at 35 g/ha ([2]; Chenopodium album, 336 h, 35 g ai/ha, foliar post-emergent, scored after 14 days, read-out: % Visual Growth Reduction CHEAL): 90%
pest or weed control at 70 g/ha [2, 10]: 100%
pest or weed control at 140 g/ha [2, 10]: 100%
pest or weed control at 280 g/ha [2, 10]: 100%
GR80 Value CHEAL [2]: <17.5 g ai/ha
pest or weed control at 35 g/ha ([3]; Euphorbia heterophylla, 336 h, 35 g ai/ha, foliar post-emergent, scored after 14 days, read-out: % Visual Growth Reduction EPHHL): 90%
pest or weed control at 70 g/ha [3, 11]: 100%
pest or weed control at 140 g/ha [3, 11]: 100%
pest or weed control at 280 g/ha [3, 11]: 100%
GR80 Value EPHHL [3]: 29.2 g ai/ha
pest or weed control at 35 g/ha ([4]; Helianthus annuus, 336 h, 35 g ai/ha, foliar post-emergent, scored after 14 days, read-out: % Visual Growth Reduction HELAN): 100%
pest or weed control at 70 g/ha [4, 12]: 100%
pest or weed control at 140 g/ha [4, 12]: 100%
pest or weed control at 280 g/ha [4, 12]: 100%
GR80 Value HELAN [4]: 23.1 g ai/ha
pest or weed control at 35 g/ha ([5]; Amaranthus retroflexus, 336 h, 35 g ai/ha, foliar post-emergent, scored after 14 days, read-out: % Visual Growth Reduction AMARE): 80%
pest or weed control at 70 g/ha [5, 13]: 100%
pest or weed control at 140 g/ha [5, 13]: 100%
pest or weed control at 280 g/ha [5, 13]: 100%
GR80 Value AMARE [5]: 26.8 g ai/ha
pest or weed control at 35 g/ha ([6]; Echinochloa crus-galli, 336 h, 35 g ai/ha, foliar post-emergent, scored after 14 days, read-out: % Visual Growth Reduction ECHCG): 0%
pest or weed control at 70 g/ha [6, 14]: 0%
pest or weed control at 140 g/ha [6, 14]: 55%
pest or weed control at 280 g/ha [6, 14]: 80%
GR80 Value ECHCG [6]: 249 g ai/ha
plant injury at 35 g/ha ([7]; 35 g ai/ha): 15%
plant injury at 70 g/ha [7]: 30%
plant injury at 140 g/ha [7]: 60%
plant injury at 280 g/ha [7]: 70%
plant injury at 35 g/ha ([8]; 35 g ai/ha): 0%
plant injury at 70 g/ha [8]: 0%
plant injury at 140 g/ha [8]: 0%
plant injury at 280 g/ha [8]: 8%

COC(=O)c1nc(C(F)F)c(F)c(N)c1Cl [Compound F3, methyl 4-amino-3-chloro-6-(difluoromethyl)-5-fluoropicolinate]
pest or weed control at 70 g/ha [1, 9]: 0%
pest or weed control at 140 g/ha [1, 9]: 5%
pest or weed control at 280 g/ha [1, 9]: 10%
GR80 Value VIOTR [1]: >280 g ai/ha
pest or weed control at 70 g/ha [2, 10]: 100%
pest or weed control at 140 g/ha [2, 10]: 100%
pest or weed control at 280 g/ha [2, 10]: 100%
GR80 Value CHEAL [2]: <17.5 g ai/ha
pest or weed control at 70 g/ha [3, 11]: 50%
pest or weed control at 140 g/ha [3, 11]: 75%
pest or weed control at 280 g/ha [3, 11]: 85%
GR80 Value EPHHL [3]: 193 g ai/ha
pest or weed control at 70 g/ha [4, 12]: 90%
pest or weed control at 140 g/ha [4, 12]: 90%
pest or weed control at 280 g/ha [4, 12]: 90%
GR80 Value HELAN [4]: 32.5 g ai/ha
pest or weed control at 70 g/ha [5, 13]: 5%
pest or weed control at 140 g/ha [5, 13]: 50%
pest or weed control at 280 g/ha [5, 13]: 90%
GR80 Value AMARE [5]: 112 g ai/ha
pest or weed control at 70 g/ha [6, 14]: 0%
pest or weed control at 140 g/ha [6, 14]: 0%
pest or weed control at 280 g/ha [6, 14]: 10%
GR80 Value ECHCG [6]: >280 g ai/ha
plant injury at 70 g/ha [7]: 0%
plant injury at 140 g/ha [7]: 0%
plant injury at 280 g/ha [7]: 10%
plant injury at 70 g/ha [8]: 0%
plant injury at 140 g/ha [8]: 0%
plant injury at 280 g/ha [8]: 0%

COC(=O)c1nc(C(F)=C(F)F)cc(N)c1Cl [Compound F17]
pest or weed control at 140 g/ha [1, 9]: 0%
pest or weed control at 140 g/ha [2, 10]: 0%
pest or weed control at 140 g/ha [3, 11]: 0%
pest or weed control at 140 g/ha [4, 12]: 60%
pest or weed control at 140 g/ha [5, 13]: 0%
pest or weed control at 140 g/ha [6, 14]: 0%
plant injury at 140 g/ha [7]: 0%
plant injury at 140 g/ha [8]: 0%

COC(=O)c1nc(CCC(F)(F)F)c(Cl)c(N)c1Cl [Compound F5, methyl 4-amino-3,5-dichloro-6-(3,3,3-trifluoropropyl)picolinate]
pest or weed control at 280 g/ha [1, 9]: 0%
pest or weed control at 280 g/ha [2, 10]: 0%
pest or weed control at 280 g/ha [3, 11]: 0%
pest or weed control at 280 g/ha [4, 12]: 60%
pest or weed control at 280 g/ha [5, 13]: 0%
pest or weed control at 280 g/ha [6, 14]: 0%
plant injury at 280 g/ha [7]: 0%
plant injury at 280 g/ha [8]: 0%

Reference: patent US9603364B2 (Dow AgroSciences LLC, priority 2013, dated 2017)
